Source: ChEMBL document CHEMBL4376850, “1-Benzylpyrrolidine-3-amine-based BuChE inhibitors with anti-aggregating, antioxidant and metal-chelating properties as multifunctional agents against Alzheimer's disease” (Eur J Med Chem, 2020)
Active and inactive are the calls of the source. The calls are words filed in the database; no cut-off is given here.

How the values were obtained:
[1] = molecular target: Amyloid-beta precursor protein (Homo sapiens) (UniProt P05067); conditions: at 10 µM
Description: Inhibition of amyloid beta (1 to 42) (unknown origin) aggregation at 10 uM expressed in Escherichia coli BL21 (DE3) incubated for 24 hrs by thioflavin T-based fluorometric assay relative to control

Beta-secretase 1 [2] = molecular target: T1, Beta-secretase 1 (Homo sapiens, UniProt P56817); conditions: 50 uM
[3] = molecular target: Cholinesterase (Equus caballus) (UniProt P81908); test: Inhibition of equine serum BuChE at 10 uM using butyrylthiocholine chloride as substrate pre-incubated for 5 mins followed by substrate addition and measured after 5 mins by Ellman's method relative to control
[4] = molecular target: Acetylcholinesterase (Electrophorus electricus) (UniProt O42275); test: Inhibition of Electrophorus electricus AChE at 10 uM using acetylthiocholine iodide as substrate preincubated for 5 mins followed by substrate addition and measured after 5 mins by Ellman's method relative to control
[5] = molecular target: Microtubule-associated protein tau (Homo sapiens) (UniProt P10636); test: Inhibition of tau aggregation (unknown origin) at 10 uM expressed in Escherichia coli BL21 (DE3) incubated for 24 hrs by thioflavin T-based fluorometric assay relative to control
Beta-secretase 1 [6] = molecular target: T1, Beta-secretase 1
[7] = Antioxidant activity assessed as increase in total ferric ion reducing activity at 75 uM using FeCl3.H2O and TPTZ incubated for 5 mins by FRAP assay relative to control; assay type: functional; design: scale not given: the % may be the effect or the level left
[8] = molecular target: Amyloid-beta precursor protein (Homo sapiens) (UniProt P05067); test: Inhibition of HFIP-pretreated amyloid beta (1 to 42) (unknown origin) aggregation at 10 uM after 48 hrs measured every 3 mins by thioflavin T-based fluorometric assay relative to control
[9] = Antioxidant activity assessed as increase in total ferric ion reducing activity at 30 uM using FeCl3.H2O and TPTZ incubated for 5 mins by FRAP assay relative to control; assay type: functional; design: scale not given: the % may be the effect or the level left
[10] = Antioxidant activity assessed as ABTS radical scavenging activity at 150 uM measured after 60 mins by spectrophotometric assay relative to control; assay type: functional
[11] = Antioxidant activity assessed as increase in total ferric ion reducing activity at 150 uM using FeCl3.H2O and TPTZ incubated for 30 mins by FRAP assay relative to control; assay type: functional; design: scale not given: the % may be the effect or the level left
[12] = Antioxidant activity assessed as ABTS radical scavenging activity at 30 uM measured after 60 mins by spectrophotometric assay relative to control; assay type: functional
[13] = Antioxidant activity assessed as increase in total ferric ion reducing activity at 75 uM using FeCl3.H2O and TPTZ incubated for 60 mins by FRAP assay relative to control; assay type: functional; design: scale not given: the % may be the effect or the level left
[14] = Antioxidant activity assessed as ABTS radical scavenging activity at 75 uM measured after 5 mins by spectrophotometric assay relative to control; assay type: functional
[15] = Antioxidant activity assessed as increase in total ferric ion reducing activity at 75 uM using FeCl3.H2O and TPTZ incubated for 30 mins by FRAP assay relative to control; assay type: functional; design: scale not given: the % may be the effect or the level left
[16] = Antioxidant activity assessed as increase in total ferric ion reducing activity at 30 uM using FeCl3.H2O and TPTZ incubated for 60 mins by FRAP assay relative to control; assay type: functional; design: scale not given: the % may be the effect or the level left
[17] = Antioxidant activity assessed as increase in total ferric ion reducing activity at 150 uM using FeCl3.H2O and TPTZ incubated for 5 mins by FRAP assay relative to control; assay type: functional; design: scale not given: the % may be the effect or the level left
[18] = Antioxidant activity assessed as increase in total ferric ion reducing activity at 30 uM using FeCl3.H2O and TPTZ incubated for 30 mins by FRAP assay relative to control; assay type: functional; design: scale not given: the % may be the effect or the level left
[19] = Antioxidant activity assessed as ABTS radical scavenging activity at 150 uM measured after 30 mins by spectrophotometric assay relative to control; assay type: functional
[20] = Antioxidant activity assessed as ABTS radical scavenging activity at 30 uM measured after 5 mins by spectrophotometric assay relative to control; assay type: functional
[21] = Antioxidant activity assessed as ABTS radical scavenging activity at 75 uM measured after 30 mins by spectrophotometric assay relative to control; assay type: functional
[22] = Antioxidant activity assessed as ABTS radical scavenging activity at 150 uM measured after 5 mins by spectrophotometric assay relative to control; assay type: functional
[23] = Antioxidant activity assessed as ABTS radical scavenging activity at 30 uM measured after 30 mins by spectrophotometric assay relative to control; assay type: functional
[24] = Antioxidant activity assessed as increase in total ferric ion reducing activity at 150 uM using FeCl3.H2O and TPTZ incubated for 60 mins by FRAP assay relative to control; assay type: functional; design: scale not given: the % may be the effect or the level left
[25] = Antioxidant activity assessed as ABTS radical scavenging activity at 75 uM measured after 60 mins by spectrophotometric assay relative to control; assay type: functional
[26] = Metal chelating activity assessed as Cu2+-compound complex formation at 50 uM after 30 mins by UV-Visible spectrophotometric method
Cholinesterase [27] = molecular target: T2, Cholinesterase (Equus caballus, UniProt P81908)
Description: Inhibition of equine serum BuChE using butyrylthiocholine chloride as substrate pre-incubated for 5 mins followed by substrate addition and measured after 5 mins by Ellman's method

Cholinesterase [28] = molecular target: T2, Cholinesterase; test: Inhibition of equine BuChE
Beta-secretase 1 [29] = molecular target: T1, Beta-secretase 1; test: Inhibition of BACE1 (unknown origin)

Chain of Acetylcholinesterase (Electrophorus electricus) (O42275 24-633 limits assumed): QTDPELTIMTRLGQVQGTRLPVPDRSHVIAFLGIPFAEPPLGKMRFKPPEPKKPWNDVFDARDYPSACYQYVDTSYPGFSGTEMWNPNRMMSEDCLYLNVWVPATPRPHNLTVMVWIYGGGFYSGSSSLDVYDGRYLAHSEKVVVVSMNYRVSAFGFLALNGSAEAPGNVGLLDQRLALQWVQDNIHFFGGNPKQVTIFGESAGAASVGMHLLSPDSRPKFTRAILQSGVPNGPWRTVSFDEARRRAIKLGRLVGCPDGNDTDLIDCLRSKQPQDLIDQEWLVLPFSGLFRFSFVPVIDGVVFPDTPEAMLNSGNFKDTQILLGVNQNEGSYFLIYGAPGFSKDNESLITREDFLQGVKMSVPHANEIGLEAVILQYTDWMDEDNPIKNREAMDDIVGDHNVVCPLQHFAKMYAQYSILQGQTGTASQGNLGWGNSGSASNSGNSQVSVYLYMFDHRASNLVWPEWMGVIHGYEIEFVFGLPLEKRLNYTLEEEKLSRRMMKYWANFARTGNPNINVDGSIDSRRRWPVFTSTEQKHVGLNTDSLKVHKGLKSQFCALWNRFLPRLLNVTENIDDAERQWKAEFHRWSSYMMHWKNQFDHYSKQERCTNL
Chain of Amyloid-beta precursor protein (Homo sapiens) (P05067 whole entry): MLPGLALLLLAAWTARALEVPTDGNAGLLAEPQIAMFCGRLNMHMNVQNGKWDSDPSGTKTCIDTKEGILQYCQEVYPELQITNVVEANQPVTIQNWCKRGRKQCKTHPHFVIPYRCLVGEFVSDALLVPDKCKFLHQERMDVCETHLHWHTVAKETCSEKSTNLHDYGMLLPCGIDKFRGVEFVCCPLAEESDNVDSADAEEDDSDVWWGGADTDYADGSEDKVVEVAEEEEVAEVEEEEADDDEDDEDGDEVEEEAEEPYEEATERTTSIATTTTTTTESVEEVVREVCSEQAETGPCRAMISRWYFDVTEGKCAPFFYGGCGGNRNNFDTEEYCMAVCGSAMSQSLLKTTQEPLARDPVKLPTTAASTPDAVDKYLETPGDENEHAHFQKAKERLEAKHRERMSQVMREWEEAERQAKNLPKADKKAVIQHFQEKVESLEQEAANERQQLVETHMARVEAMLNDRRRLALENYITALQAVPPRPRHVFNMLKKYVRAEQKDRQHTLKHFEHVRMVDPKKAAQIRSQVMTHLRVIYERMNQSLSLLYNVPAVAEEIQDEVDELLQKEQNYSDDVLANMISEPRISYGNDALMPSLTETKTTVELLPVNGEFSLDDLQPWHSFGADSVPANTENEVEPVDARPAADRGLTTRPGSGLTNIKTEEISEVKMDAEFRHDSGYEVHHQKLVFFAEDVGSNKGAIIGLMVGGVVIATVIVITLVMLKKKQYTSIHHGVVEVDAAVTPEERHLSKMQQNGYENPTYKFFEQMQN
Chain of Cholinesterase (Equus caballus) (P81908 whole entry): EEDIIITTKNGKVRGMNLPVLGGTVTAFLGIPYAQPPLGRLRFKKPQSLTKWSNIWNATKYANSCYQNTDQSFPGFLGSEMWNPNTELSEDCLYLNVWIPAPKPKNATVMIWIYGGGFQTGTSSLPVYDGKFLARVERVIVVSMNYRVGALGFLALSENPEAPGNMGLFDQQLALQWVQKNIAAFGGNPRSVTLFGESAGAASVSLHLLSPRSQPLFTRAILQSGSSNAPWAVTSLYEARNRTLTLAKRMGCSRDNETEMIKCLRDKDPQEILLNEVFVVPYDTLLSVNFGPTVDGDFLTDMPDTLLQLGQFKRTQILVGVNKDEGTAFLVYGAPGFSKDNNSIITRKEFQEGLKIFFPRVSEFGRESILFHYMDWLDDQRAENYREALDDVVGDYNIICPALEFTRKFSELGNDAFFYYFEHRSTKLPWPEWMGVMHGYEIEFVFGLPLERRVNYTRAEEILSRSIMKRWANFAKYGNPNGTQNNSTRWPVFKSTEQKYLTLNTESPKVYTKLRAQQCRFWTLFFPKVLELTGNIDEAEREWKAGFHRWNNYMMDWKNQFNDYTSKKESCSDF
T2 sequence (P81908 whole entry): as above
Chain of Microtubule-associated protein tau (Homo sapiens) (P10636 whole entry): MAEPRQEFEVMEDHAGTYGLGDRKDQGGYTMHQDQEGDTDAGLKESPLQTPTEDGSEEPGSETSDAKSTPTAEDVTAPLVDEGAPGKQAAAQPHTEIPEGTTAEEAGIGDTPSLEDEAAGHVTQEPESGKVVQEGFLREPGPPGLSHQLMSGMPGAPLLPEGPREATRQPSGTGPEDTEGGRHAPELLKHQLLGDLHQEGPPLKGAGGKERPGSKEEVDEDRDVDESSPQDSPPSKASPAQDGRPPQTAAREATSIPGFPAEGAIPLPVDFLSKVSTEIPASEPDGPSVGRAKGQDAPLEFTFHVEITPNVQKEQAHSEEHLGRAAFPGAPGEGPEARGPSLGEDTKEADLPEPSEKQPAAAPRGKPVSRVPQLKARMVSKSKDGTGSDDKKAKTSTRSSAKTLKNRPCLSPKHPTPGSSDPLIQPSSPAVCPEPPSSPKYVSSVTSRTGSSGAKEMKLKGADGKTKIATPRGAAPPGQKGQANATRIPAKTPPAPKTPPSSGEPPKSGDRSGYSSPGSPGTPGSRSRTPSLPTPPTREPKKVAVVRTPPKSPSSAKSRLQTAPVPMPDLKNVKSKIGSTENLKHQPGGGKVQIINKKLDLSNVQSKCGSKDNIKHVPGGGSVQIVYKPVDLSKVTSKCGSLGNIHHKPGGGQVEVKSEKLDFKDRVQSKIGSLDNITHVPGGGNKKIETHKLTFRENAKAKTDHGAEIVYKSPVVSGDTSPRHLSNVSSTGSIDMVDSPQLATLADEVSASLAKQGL
T1 sequence (P56817 whole entry): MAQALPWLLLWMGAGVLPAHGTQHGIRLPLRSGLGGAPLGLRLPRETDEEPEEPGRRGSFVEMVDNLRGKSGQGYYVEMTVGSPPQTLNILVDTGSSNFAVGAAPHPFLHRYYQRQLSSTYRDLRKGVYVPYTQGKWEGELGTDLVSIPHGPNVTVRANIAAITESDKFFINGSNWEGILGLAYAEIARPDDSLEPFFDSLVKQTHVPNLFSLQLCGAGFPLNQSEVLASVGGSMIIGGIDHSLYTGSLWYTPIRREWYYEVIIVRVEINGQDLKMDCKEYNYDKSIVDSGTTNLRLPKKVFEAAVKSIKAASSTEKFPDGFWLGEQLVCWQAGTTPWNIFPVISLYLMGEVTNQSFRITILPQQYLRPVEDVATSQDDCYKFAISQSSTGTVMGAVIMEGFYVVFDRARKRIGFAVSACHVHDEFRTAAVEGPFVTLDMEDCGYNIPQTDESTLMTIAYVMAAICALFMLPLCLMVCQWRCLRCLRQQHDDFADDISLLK

c1ccc(CN2CCC(NCCN3CCC(C(c4ccccc4)c4ccccc4)CC3)C2)cc1 (stereo not drawn)
inhibition [1]: 31.7%
inhibition (Beta-secretase 1 [2]): 54.3%
inhibition [3]: 44.2%
inhibition [4]: 25.2%
inhibition [5]: 60.4%
IC50 (Beta-secretase 1 [6]): 49.8 µM

O=C(CN1CCC(Cc2ccccc2)CC1)NC1CCN(Cc2ccccc2)C1 (stereo not drawn)
Activity [7]: 2%
inhibition [8]: 22.1%
inhibition [1]: 35%
inhibition (Beta-secretase 1 [2]): 55.6%
Activity [9]: 5%
Activity [10]: 27%
Activity [11]: 6%
Activity [12]: 10%
Activity [13]: 6%
Activity [14]: 8%
Activity [15]: 5%
Activity [16]: 4%
inhibition [3]: 36.1%
Activity [17]: 5%
Activity [18]: 16%
inhibition [4]: < 10%
Activity [19]: 20%
Activity [20]: 7%
Activity [21]: 12%
Activity [22]: 11%
Activity [23]: 9%
Activity [24]: 8%
inhibition [5]: 66.8%
Activity [25]: 14%

c1ccc(CCC2CCN(CCNC3CCN(Cc4ccccc4)C3)CC2)cc1 (stereo not drawn)
Activity [7]: 1%
Activity [26]: Active
inhibition [1]: 41%
inhibition (Beta-secretase 1 [2]): 31%
Activity [9]: 2%
Activity [10]: 45%
Activity [11]: 13%
Activity [12]: 18%
Activity [13]: 9%
Activity [14]: 12%
Activity [15]: 6%
Activity [16]: 3%
Activity [17]: 11%
Activity [18]: 2%
inhibition [4]: < 10%
IC50 (Cholinesterase [27]): 7.39 µM
Activity [19]: 29%
Activity [20]: 8%
Activity [21]: 24%
Activity [22]: 3%
Activity [23]: 12%
Activity [24]: 16%
inhibition [5]: 67.8%
Activity [25]: 33%

c1ccc(CN2CCN(CCNC3CCN(Cc4ccccc4)C3)CC2)cc1 (stereo not drawn)
Activity [7]: 17%
Activity [26]: Active
inhibition [8]: 19.2%
inhibition [1]: 37.9%
inhibition (Beta-secretase 1 [2]): 13.6%
Activity [9]: 9%
Activity [10]: 93%
Activity [11]: 48%
Activity [12]: 43%
Activity [13]: 30%
Activity [14]: 26%
Activity [15]: 27%
Activity [16]: 15%
inhibition [3]: 36.7%
Activity [17]: 45%
Activity [18]: 13%
inhibition [4]: < 10%
Activity [19]: 84%
Activity [20]: 18%
Activity [21]: 50%
Activity [22]: 54%
Activity [23]: 36%
Activity [24]: 51%
inhibition [5]: 60.6%
Activity [25]: 58%

Cc1c(OCc2ccccc2)cccc1N1CCN(CC(=O)NC2CCN(Cc3ccccc3)C2)CC1 (stereo not drawn)
Activity [26]: Active
IC50 (Cholinesterase [28]): 76 µM
IC50 (Beta-secretase 1 [29]): 33 µM

c1ccc(CN2CCC(NCCN3CCN(C(c4ccccc4)c4ccccc4)CC3)C2)cc1 (stereo not drawn)
Activity [7]: 4%
Activity [26]: Active
inhibition [8]: 27.7%
inhibition [1]: 31.6%
inhibition (Beta-secretase 1 [2]): 34.2%
Activity [9]: 4%
Activity [10]: 84%
Activity [11]: 21%
Activity [12]: 47%
Activity [13]: 12%
Activity [14]: 29%
Activity [15]: 10%
Activity [16]: 11%
inhibition [3]: 46.2%
Activity [17]: 19%
Activity [18]: 8%
inhibition [4]: 27.6%
Activity [19]: 77%
Activity [20]: 22%
Activity [21]: 52%
Activity [22]: 51%
Activity [23]: 41%
Activity [24]: 25%
inhibition [5]: 64%
Activity [25]: 59%

c1ccc(CC2CCN(CCNC3CCN(Cc4ccccc4)C3)CC2)cc1 (stereo not drawn)
Activity [7]: 6%
Activity [26]: Active
inhibition [1]: 36.6%
inhibition (Beta-secretase 1 [2]): < 10%
Activity [9]: 1%
Activity [10]: 55%
Activity [11]: 20%
Activity [12]: 17%
Activity [13]: 13%
Activity [14]: 11%
Activity [15]: 11%
Activity [16]: 3%
Activity [17]: 13%
Activity [18]: 2%
inhibition [4]: 21.2%
IC50 (Cholinesterase [27]): 0.62 µM
Activity [19]: 43%
Activity [20]: 9%
Activity [21]: 21%
Activity [22]: 21%
Activity [23]: 12%
Activity [24]: 22%
inhibition [5]: 61%
Activity [25]: 27%

O=C(CN1CCC(C(c2ccccc2)c2ccccc2)CC1)NC1CCN(Cc2ccccc2)C1 (stereo not drawn)
inhibition [8]: 35.3%
inhibition [1]: 53.3%
inhibition (Beta-secretase 1 [2]): 52.2%
inhibition [3]: 24.6%
inhibition [4]: < 10%
inhibition [5]: 64.3%
IC50 (Beta-secretase 1 [6]): 55.2 µM
